Values joined by “and” are separate entries in the source; they are usually repeats but may differ in a detail not shown here. Identical values can stand only once.
Key:
Assay in all cases: radiometric filter-binding kinase assay, Kinase HotSpot
Details in all cases: compound 0.5 µM; ATP 10 µM
AKT2 (human) = AKT2 (human) (UniProt P31751)
ALK (human) = ALK (human) (UniProt Q9UM73)
BMX (human) = BMX (human) (UniProt P51813)
CAMK2B (human) = CAMK2B (human) (UniProt Q13554)
CDC42BPA (human) = CDC42BPA (human) (UniProt Q5VT25)
CDK3 CCNE1 (human) = CDK3 CCNE1 (human) (UniProt Q00526+P24864)
CLK2 (human) = CLK2 (human) (UniProt P49760)
CLK2 (human), sequence (P49760 whole entry, looked up): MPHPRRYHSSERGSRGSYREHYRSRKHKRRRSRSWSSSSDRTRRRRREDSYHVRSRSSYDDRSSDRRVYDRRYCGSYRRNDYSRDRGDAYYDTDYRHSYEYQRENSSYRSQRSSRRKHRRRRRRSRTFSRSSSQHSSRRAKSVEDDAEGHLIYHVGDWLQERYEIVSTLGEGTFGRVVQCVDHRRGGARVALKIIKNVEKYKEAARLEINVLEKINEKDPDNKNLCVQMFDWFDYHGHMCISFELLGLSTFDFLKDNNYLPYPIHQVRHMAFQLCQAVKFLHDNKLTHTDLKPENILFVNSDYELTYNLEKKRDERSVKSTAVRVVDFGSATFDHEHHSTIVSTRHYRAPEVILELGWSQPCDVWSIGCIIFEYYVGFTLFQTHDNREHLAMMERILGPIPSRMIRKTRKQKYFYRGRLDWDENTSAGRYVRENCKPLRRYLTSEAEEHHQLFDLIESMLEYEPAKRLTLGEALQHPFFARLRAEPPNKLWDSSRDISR

CSK (human) = CSK (human) (UniProt P41240)
DAPK1 (human) = DAPK1 (human) (UniProt P53355)
DMPK (human) = DMPK (human) (UniProt Q09013)
EPHA4 (human) = EPHA4 (human) (UniProt P54764)
EPHB2 (human) = EPHB2 (human) (UniProt P29323)
EPHB2 (human), sequence (P29323 whole entry, looked up): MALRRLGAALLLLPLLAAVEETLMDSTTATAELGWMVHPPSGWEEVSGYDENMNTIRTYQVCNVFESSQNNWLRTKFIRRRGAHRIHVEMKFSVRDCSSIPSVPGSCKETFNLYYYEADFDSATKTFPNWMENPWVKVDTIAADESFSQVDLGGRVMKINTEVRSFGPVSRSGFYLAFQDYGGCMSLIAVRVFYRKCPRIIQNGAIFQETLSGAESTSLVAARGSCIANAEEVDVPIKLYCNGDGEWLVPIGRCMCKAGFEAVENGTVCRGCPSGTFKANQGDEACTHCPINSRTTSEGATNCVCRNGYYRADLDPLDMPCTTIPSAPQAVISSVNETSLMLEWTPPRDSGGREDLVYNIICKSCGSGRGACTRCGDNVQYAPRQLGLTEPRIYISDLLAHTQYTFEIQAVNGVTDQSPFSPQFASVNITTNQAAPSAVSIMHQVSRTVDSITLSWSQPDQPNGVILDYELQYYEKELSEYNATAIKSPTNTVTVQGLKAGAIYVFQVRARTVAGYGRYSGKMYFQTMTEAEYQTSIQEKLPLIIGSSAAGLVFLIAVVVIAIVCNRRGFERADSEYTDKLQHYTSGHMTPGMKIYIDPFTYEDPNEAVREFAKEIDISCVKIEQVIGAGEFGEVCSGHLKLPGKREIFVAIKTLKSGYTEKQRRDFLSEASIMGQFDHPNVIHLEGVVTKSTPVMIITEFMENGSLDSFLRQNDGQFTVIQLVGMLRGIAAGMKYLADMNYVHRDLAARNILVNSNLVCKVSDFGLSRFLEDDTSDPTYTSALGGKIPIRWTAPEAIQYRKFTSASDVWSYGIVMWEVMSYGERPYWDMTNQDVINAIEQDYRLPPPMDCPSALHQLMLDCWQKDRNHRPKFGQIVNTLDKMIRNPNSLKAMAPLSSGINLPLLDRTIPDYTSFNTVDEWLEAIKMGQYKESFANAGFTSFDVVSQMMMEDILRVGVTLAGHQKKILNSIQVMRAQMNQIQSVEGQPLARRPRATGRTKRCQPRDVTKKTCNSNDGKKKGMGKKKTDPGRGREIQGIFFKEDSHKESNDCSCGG

GRK7 (human) = GRK7 (human) (UniProt Q8WTQ7)
GSK3A (human) = GSK3A (human) (UniProt P49840)
HCK (human) = HCK (human) (UniProt P08631)
IRAK1 (human) = IRAK1 (human) (UniProt P51617)
LRRK2 (human) = LRRK2 (human) (UniProt Q5S007)
LTK (human) = LTK (human) (UniProt P29376)
LYN (human) = LYN (human) (UniProt P07948)
MAP3K11 (human) = MAP3K11 (human) (UniProt Q16584)
MAP3K11 (human), sequence (Q16584 whole entry, looked up): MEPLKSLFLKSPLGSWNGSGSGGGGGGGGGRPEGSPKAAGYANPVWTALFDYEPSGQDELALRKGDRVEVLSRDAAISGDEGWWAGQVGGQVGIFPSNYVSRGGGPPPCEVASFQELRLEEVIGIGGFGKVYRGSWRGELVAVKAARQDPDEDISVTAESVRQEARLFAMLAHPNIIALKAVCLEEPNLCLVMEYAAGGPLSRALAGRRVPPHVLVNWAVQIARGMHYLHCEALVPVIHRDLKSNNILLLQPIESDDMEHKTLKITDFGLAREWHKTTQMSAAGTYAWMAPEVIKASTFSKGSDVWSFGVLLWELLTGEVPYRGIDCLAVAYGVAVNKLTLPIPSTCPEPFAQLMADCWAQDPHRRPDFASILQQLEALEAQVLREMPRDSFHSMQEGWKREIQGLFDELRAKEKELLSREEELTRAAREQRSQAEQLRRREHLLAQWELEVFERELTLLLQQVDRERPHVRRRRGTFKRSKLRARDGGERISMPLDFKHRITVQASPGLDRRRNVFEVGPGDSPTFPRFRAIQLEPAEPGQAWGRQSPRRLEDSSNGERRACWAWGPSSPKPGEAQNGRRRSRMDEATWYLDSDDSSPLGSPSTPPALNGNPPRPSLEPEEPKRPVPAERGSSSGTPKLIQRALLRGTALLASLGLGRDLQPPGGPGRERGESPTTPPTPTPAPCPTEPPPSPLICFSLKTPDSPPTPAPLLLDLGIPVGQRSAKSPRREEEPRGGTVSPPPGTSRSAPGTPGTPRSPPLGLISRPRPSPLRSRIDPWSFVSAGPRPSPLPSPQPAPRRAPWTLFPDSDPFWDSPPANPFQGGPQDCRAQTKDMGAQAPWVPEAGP

MAP4K2 (human) = MAP4K2 (human) (UniProt Q12851)
MAP4K2 (human), sequence (Q12851 whole entry, looked up): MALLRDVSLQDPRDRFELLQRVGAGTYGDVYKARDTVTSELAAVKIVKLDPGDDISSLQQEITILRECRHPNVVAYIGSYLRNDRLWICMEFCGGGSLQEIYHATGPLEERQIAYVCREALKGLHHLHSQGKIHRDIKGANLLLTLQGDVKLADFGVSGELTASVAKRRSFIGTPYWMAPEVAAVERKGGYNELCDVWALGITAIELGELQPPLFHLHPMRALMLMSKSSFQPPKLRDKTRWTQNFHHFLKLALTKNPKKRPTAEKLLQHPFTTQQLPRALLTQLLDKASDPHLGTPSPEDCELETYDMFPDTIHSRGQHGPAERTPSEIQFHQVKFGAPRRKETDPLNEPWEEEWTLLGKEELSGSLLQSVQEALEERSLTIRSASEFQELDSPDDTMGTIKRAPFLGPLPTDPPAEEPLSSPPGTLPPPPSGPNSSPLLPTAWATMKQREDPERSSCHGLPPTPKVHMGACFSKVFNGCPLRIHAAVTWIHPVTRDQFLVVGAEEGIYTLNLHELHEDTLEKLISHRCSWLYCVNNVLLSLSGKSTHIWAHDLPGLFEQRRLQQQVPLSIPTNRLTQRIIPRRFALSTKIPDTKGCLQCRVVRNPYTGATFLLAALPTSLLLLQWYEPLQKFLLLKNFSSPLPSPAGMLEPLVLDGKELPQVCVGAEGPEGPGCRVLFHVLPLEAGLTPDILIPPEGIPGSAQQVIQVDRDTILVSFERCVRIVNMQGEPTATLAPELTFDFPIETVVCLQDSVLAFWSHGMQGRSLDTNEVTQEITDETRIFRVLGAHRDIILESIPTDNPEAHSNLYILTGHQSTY

NEK1 (human) = NEK1 (human) (UniProt Q96PY6)
NEK7 (human) = NEK7 (human) (UniProt Q8TDX7)
NTRK1 (human) = NTRK1 (human) (UniProt P04629)
OXSR1 (human) = OXSR1 (human) (UniProt O95747)
OXSR1 (human), sequence (O95747 whole entry, looked up): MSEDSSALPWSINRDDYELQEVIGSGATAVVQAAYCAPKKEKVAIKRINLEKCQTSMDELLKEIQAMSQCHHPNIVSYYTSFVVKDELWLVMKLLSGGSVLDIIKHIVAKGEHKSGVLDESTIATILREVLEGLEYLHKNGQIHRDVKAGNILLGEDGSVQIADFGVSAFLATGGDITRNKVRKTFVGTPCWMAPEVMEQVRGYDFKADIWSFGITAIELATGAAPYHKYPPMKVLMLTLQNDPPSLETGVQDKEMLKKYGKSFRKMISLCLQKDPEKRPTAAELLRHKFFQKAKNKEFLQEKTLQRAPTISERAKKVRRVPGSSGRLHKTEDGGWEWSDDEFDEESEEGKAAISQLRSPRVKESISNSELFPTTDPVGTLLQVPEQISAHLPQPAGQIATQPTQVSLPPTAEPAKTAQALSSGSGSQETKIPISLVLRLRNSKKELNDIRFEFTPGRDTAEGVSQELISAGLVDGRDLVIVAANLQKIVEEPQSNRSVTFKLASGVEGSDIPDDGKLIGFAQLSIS

PAK4 (human) = PAK4 (human) (UniProt O96013)
PAK7 (human) = PAK7 (human) (UniProt Q9P286)
PIM2 (human) = PIM2 (human) (UniProt Q9P1W9)
PRKD2 (human) = PRKD2 (human) (UniProt Q9BZL6)
PRKG1 (human) = PRKG1 (human) (UniProt Q13976)
PRKG2 (human) = PRKG2 (human) (UniProt Q13237)
RIPK2 (human) = RIPK2 (human) (UniProt O43353)
ROCK1 (human) = ROCK1 (human) (UniProt Q13464)
ROCK2 (human) = ROCK2 (human) (UniProt O75116)
RPS6KB1 (human) = RPS6KB1 (human) (UniProt P23443)
SRC (human) = SRC (human) (UniProt P12931)
STK10 (human) = STK10 (human) (UniProt O94804)
STK17A (human) = STK17A (human) (UniProt Q9UEE5)
STK17A (human), sequence (Q9UEE5 whole entry, looked up): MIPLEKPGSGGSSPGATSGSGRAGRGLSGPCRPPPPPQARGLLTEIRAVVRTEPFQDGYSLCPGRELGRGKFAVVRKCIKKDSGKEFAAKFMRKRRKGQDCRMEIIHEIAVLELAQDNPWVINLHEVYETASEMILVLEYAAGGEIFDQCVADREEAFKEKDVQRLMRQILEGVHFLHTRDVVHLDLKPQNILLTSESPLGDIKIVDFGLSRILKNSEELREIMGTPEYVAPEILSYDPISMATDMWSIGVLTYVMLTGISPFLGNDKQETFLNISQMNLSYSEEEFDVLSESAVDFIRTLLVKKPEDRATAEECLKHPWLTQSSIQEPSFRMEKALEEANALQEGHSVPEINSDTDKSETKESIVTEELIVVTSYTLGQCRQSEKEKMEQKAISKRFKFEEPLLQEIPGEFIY

STK25 (human) = STK25 (human) (UniProt O00506)
TNK2 (human) = TNK2 (human) (UniProt Q07912)
TSSK2 (human) = TSSK2 (human) (UniProt Q96PF2)
ZAP70 (human) = ZAP70 (human) (UniProt P43403)

CAMK2B (human), sequence (Q13554 whole entry, looked up): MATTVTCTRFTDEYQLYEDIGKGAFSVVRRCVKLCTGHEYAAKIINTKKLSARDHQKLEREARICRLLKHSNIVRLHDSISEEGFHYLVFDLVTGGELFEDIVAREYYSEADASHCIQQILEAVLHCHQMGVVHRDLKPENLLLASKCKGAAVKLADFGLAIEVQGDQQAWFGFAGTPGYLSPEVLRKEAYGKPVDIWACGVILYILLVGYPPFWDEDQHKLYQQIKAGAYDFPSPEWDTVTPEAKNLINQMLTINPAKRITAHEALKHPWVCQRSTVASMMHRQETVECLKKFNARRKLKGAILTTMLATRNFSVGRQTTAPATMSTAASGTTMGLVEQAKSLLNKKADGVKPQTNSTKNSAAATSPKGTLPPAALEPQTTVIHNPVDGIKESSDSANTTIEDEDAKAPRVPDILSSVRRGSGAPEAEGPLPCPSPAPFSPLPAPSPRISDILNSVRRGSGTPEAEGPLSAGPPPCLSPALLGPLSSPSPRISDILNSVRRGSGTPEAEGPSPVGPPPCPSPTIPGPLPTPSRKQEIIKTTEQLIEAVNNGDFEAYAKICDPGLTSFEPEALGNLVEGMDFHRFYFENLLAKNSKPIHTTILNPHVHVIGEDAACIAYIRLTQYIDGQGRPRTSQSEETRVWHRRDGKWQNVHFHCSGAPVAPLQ

`O=c1c2ccccc2[nH]c(=S)n1CCN1CCC(=C(c2ccc(F)cc2)c2ccc(F)cc2)CC1` showed a residual activity (AKT2 (human)) of 101%, a residual activity (ALK (human)) of 104% and a residual activity (BMX (human)) of 85.5%. It also gave a residual activity (CAMK2B (human)) of 102%, a residual activity (CDC42BPA (human)) of 97.7% and a residual activity (CDK3 CCNE1 (human)) of 100%. The residual activity (CLK2 (human)) was 87.8%, the residual activity (CSK (human)) was 119% and the residual activity (DAPK1 (human)) was 93.8%. The residual activity (DMPK (human)) was 108%, the residual activity (EPHA4 (human)) was 99.4% and the residual activity (EPHB2 (human)) was 92.1%. For the same compound, the residual activity (GRK7 (human)) was 111%, the residual activity (GSK3A (human)) was 104% and the residual activity (HCK (human)) was 114%. It also gave a residual activity (IRAK1 (human)) of 106%, a residual activity (LRRK2 (human)) of 93.9% and a residual activity (LTK (human)) of 97.9%. For the same compound, the residual activity (LYN (human)) was 105% and 108%, the residual activity (MAP3K11 (human)) was 95.2% and the residual activity (MAP4K2 (human)) was 112%. It also gave a residual activity (NEK1 (human)) of 109%, a residual activity (NEK7 (human)) of 100% and a residual activity (NTRK1 (human)) of 97%. The residual activity (OXSR1 (human)) was 115%, the residual activity (PAK4 (human)) was 101% and the residual activity (PAK7 (human)) was 97.4%. The residual activity (PIM2 (human)) was 129%, the residual activity (PRKD2 (human)) was 98.9% and the residual activity (PRKG1 (human)) was 102% and 95.7%. For the same compound, the residual activity (PRKG2 (human)) was 104%, the residual activity (RIPK2 (human)) was 93.1% and the residual activity (ROCK1 (human)) was 97.2%. The residual activity (ROCK2 (human)) was 98.8%, the residual activity (RPS6KB1 (human)) was 97.9% and the residual activity (SRC (human)) was 103%. The residual activity (STK10 (human)) was 96.2%, the residual activity (STK17A (human)) was 103% and the residual activity (STK25 (human)) was 96.6%. The residual activity (TNK2 (human)) was 105%, the residual activity (TSSK2 (human)) was 101% and the residual activity (ZAP70 (human)) was 98%.
`Cc1cc(Nc2nc(-c3ccccc3)nc3ccccc23)n[nH]1` was tested, and the residual activity (AKT2 (human)) was 127%, the residual activity (ALK (human)) was 75.9% and the residual activity (BMX (human)) was 41.1%. It also gave a residual activity (CAMK2B (human)) of 97.7%, a residual activity (CDC42BPA (human)) of 108% and a residual activity (CDK3 CCNE1 (human)) of 85%. For the same compound, the residual activity (CLK2 (human)) was 91.7%, the residual activity (CSK (human)) was 98.4% and the residual activity (DAPK1 (human)) was 39.1%. It also gave a residual activity (DMPK (human)) of 100%, a residual activity (EPHA4 (human)) of 70.7% and a residual activity (EPHB2 (human)) of 76.7%. It also gave a residual activity (GRK7 (human)) of 79.2%, a residual activity (GSK3A (human)) of 11.3% and a residual activity (HCK (human)) of 77.3%. The residual activity (IRAK1 (human)) was 79.3%, the residual activity (LRRK2 (human)) was 88.3% and the residual activity (LTK (human)) was 63.6%. The residual activity (LYN (human)) was 79.9% and 88.7%, the residual activity (MAP3K11 (human)) was 18.1% and the residual activity (MAP4K2 (human)) was 45.3%. The residual activity (NEK1 (human)) was 93%, the residual activity (NEK7 (human)) was 97.7% and the residual activity (NTRK1 (human)) was 14.6%. The residual activity (OXSR1 (human)) was 98.1%, the residual activity (PAK4 (human)) was 84.2% and the residual activity (PAK7 (human)) was 53.1%. For the same compound, the residual activity (PIM2 (human)) was 92.7%, the residual activity (PRKD2 (human)) was 75.9% and the residual activity (PRKG1 (human)) was 94.9% and 97.3%. For the same compound, the residual activity (PRKG2 (human)) was 98.2%, the residual activity (RIPK2 (human)) was 70.4% and the residual activity (ROCK1 (human)) was 98.8%. For the same compound, the residual activity (ROCK2 (human)) was 87.6%, the residual activity (RPS6KB1 (human)) was 60.4% and the residual activity (SRC (human)) was 24.4%. For the same compound, the residual activity (STK10 (human)) was 56.2%, the residual activity (STK17A (human)) was 81.3% and the residual activity (STK25 (human)) was 86.7%. For the same compound, the residual activity (TNK2 (human)) was 10.8%, the residual activity (TSSK2 (human)) was 105% and the residual activity (ZAP70 (human)) was 105%.
`COc1cc2c(N3CCN(C(=O)Nc4ccc(OC(C)C)cc4)CC3)ncnc2cc1OCCCN1CCCCC1` gave a residual activity (AKT2 (human)) of 97.9%, a residual activity (ALK (human)) of 103% and a residual activity (BMX (human)) of 109%. It also gave a residual activity (CAMK2B (human)) of 99.9%, a residual activity (CDC42BPA (human)) of 106% and a residual activity (CDK3 CCNE1 (human)) of 90.6%. It also gave a residual activity (CLK2 (human)) of 80.7%, a residual activity (CSK (human)) of 99.3% and a residual activity (DAPK1 (human)) of 103%. For the same compound, the residual activity (DMPK (human)) was 101%, the residual activity (EPHA4 (human)) was 96.4% and the residual activity (EPHB2 (human)) was 97.6%. The residual activity (GRK7 (human)) was 104%, the residual activity (GSK3A (human)) was 105% and the residual activity (HCK (human)) was 93.2%. It also gave a residual activity (IRAK1 (human)) of 96.1%, a residual activity (LRRK2 (human)) of 123% and a residual activity (LTK (human)) of 101%. The residual activity (LYN (human)) was 103% and 95.6%, the residual activity (MAP3K11 (human)) was 100% and the residual activity (MAP4K2 (human)) was 104%. For the same compound, the residual activity (NEK1 (human)) was 119%, the residual activity (NEK7 (human)) was 93.4% and the residual activity (NTRK1 (human)) was 48.1%. For the same compound, the residual activity (OXSR1 (human)) was 95.8%, the residual activity (PAK4 (human)) was 103% and the residual activity (PAK7 (human)) was 87.5%. The residual activity (PIM2 (human)) was 113%, the residual activity (PRKD2 (human)) was 96.4% and the residual activity (PRKG1 (human)) was 102% and 82.5%. For the same compound, the residual activity (PRKG2 (human)) was 105%, the residual activity (RIPK2 (human)) was 110% and the residual activity (ROCK1 (human)) was 102%. The residual activity (ROCK2 (human)) was 90.8%, the residual activity (RPS6KB1 (human)) was 107% and the residual activity (SRC (human)) was 102%. It also gave a residual activity (STK10 (human)) of 95%, a residual activity (STK17A (human)) of 103% and a residual activity (STK25 (human)) of 93.4%. The residual activity (TNK2 (human)) was 92.7%, the residual activity (TSSK2 (human)) was 96.6% and the residual activity (ZAP70 (human)) was 116%.
`CCCCc1c(-c2ccc(O)cc2)[nH]c2nccnc12` gave a residual activity (AKT2 (human)) of 95.3%, a residual activity (ALK (human)) of 85% and a residual activity (BMX (human)) of 86.8%. It also gave a residual activity (CAMK2B (human)) of 97%, a residual activity (CDC42BPA (human)) of 99.3% and a residual activity (CDK3 CCNE1 (human)) of 76.8%. It also gave a residual activity (CLK2 (human)) of 76.4%, a residual activity (CSK (human)) of 78.2% and a residual activity (DAPK1 (human)) of 85.3%. The residual activity (DMPK (human)) was 91.8%, the residual activity (EPHA4 (human)) was 87.5% and the residual activity (EPHB2 (human)) was 92.3%. The residual activity (GRK7 (human)) was 82.4%, the residual activity (GSK3A (human)) was 57.7% and the residual activity (HCK (human)) was 91.1%. It also gave a residual activity (IRAK1 (human)) of 63.4%, a residual activity (LRRK2 (human)) of 80% and a residual activity (LTK (human)) of 84.1%. The residual activity (LYN (human)) was 106% and 87.3%, the residual activity (MAP3K11 (human)) was 32.5% and the residual activity (MAP4K2 (human)) was 28.2%. It also gave a residual activity (NEK1 (human)) of 92.2%, a residual activity (NEK7 (human)) of 111% and a residual activity (NTRK1 (human)) of 99.6%. The residual activity (OXSR1 (human)) was 95.5%, the residual activity (PAK4 (human)) was 108% and the residual activity (PAK7 (human)) was 82.9%. The residual activity (PIM2 (human)) was 121%, the residual activity (PRKD2 (human)) was 95.3% and the residual activity (PRKG1 (human)) was 88.8% and 94.5%. It also gave a residual activity (PRKG2 (human)) of 92.6%, a residual activity (RIPK2 (human)) of 58.6% and a residual activity (ROCK1 (human)) of 98.6%. The residual activity (ROCK2 (human)) was 97.5%, the residual activity (RPS6KB1 (human)) was 105% and the residual activity (SRC (human)) was 65.2%. For the same compound, the residual activity (STK10 (human)) was 82.8%, the residual activity (STK17A (human)) was 84.9% and the residual activity (STK25 (human)) was 91.4%. For the same compound, the residual activity (TNK2 (human)) was 49.9%, the residual activity (TSSK2 (human)) was 96.7% and the residual activity (ZAP70 (human)) was 94.4%.

Reference: the kinase profiling compilation of Christmann-Franck et al. (2016)
